# Experimental data reported in US11446394B2, “Lipid nanoparticle formulations comprising lipidated cationic peptide compounds for nucleic acid delivery” (NUTCRACKER THERAPEUTICS, INC., priority 2018, dated 2022).
# Assays:
# [1] = mRNA encapsulation by Qubit RNA HS dye fluorescence before and after Triton X-100 lysis; assay type: physicochemical; conditions: percentage of mRNA encapsulation; Fluc mRNA/peptoid formulation, 5:1 mass ratio peptoid:cargo
# Procedure: (§1) To prepare nanoparticle formulations, the tertiary amino lipidated and/or PEGylated cationic peptide compound is mixed by pipetting with nucleic acid at a mass ratio between approximately 1:1 (peptide compound:cargo) and 20:1. Prior to formulation, tertiary amino lipidated and/or PEGylated cationic peptide compounds and cargo (such as nucleic acid) are diluted in ethanol and acidic buffer (PBS adjusted to pH 5.5 with 0.1 M HCl) respectively to a volume ratio of 1:3 and to target a final cargo concentration of approximately 0.05 mg/mL to 0.2 mg/mL. The exemplary amino lipidated cationic peptoids 1-36 described in Example 2 were combined with firefly luciferase (Fluc) mRNA to form nanoparticle compositions to be evaluated for therapeutic and/or prophylactic purposes in vitro or in vivo. The formulations were prepared according to the protocol of Example 3 and mixed by simple pipetting. The mRNA/peptoid formulation at a 5:1 mass ratio of peptoid:cargo were evaluated by dynamic light scattering (DLS) in order to determine the volume average particle size/diameter (nm) of the mRNA/peptoid complex and the size polydispersity index (PDI) within the formulation. The percentage of mRNA encapsulation for each formulation of the exemplary compounds were determined by fluorescence of the Qubit RNA HS (Invitrogen) dye before and after lysis of particles by Triton X-100.
# [2] = Dynamic light scattering of Fluc mRNA/peptoid formulations (particle size, PDI); assay type: physicochemical; conditions: Fluc mRNA/peptoid formulation, 5:1 mass ratio peptoid:cargo; for Size PDI: size polydispersity index by DLS; for Size (nm): volume average particle size/diameter by DLS
# Procedure: as §1
# HeLa cells = experiment: In vitro firefly luciferase (Fluc) expression after treatment with Fluc mRNA/amino lipidated peptoid formulations; assay type: cell-based; conditions: peptoid:Fluc mRNA 5:1 w/w, 100 ng/well; for Luciferase Expression (RLU) 6 h: 6 hours of treatment; for Luciferase Expression (RLU) 24 h: 24 hours of treatment
# Procedure: The efficacy of mRNA/amino lipidated peptoid formulations was evaluated in vitro based on their ability to deliver the firefly luciferase (Fluc) reporter gene to cultured cells. The amino lipidated cationic peptoids 1-36 of Example 2 were individually combined with Fluc mRNA at a 5:1 w/w ratio, and the resulting particles were added to cultured HeLa cells at a dose of 100 ng/well (in 100 μL total volume). The resulting luciferase expression (RLU) was measured by a luminescence plate reader after 6 hours and 24 hours of treatment.
SMILES,% Encapsulation [1] [%],Size PDI [2],Size (nm) [2] [nm],Luciferase Expression (RLU) 6 h (HeLa cells) [RLU],Luciferase Expression (RLU) 24 h (HeLa cells) [RLU]
CCCCCCCCCCN(CC(N)=O)C(=O)CN(CCCCCCCCCC)C(=O)CN(CCCCCCCCCC)C(=O)CN(CCCCCCCCCC)C(=O)CN(CCc1ccccc1)C(=O)CN(CCc1ccccc1)C(=O)CN(CCN)C(=O)CN(CCc1ccccc1)C(=O)CN(CCc1ccccc1)C(=O)CN(CCN)C(=O)CN(CCc1ccccc1)C(=O)CN(CCc1ccccc1)C(=O)CNCCN [Compound 8],82.5,0.077,234,1.10E+04,1.33E+04
CCCCCCCCCCN(CC(N)=O)C(=O)CN(CCCCCCCCCC)C(=O)CN(CCc1ccccc1)C(=O)CN(CCc1ccccc1)C(=O)CN(CCN)C(=O)CN(CCc1ccccc1)C(=O)CN(CCc1ccccc1)C(=O)CN(CCN)C(=O)CN(CCc1ccccc1)C(=O)CN(CCc1ccccc1)C(=O)CN(CCN)C(=O)CN(CCc1ccccc1)C(=O)CN(CCc1ccccc1)C(=O)CN(CCN)C(=O)CN(CCc1ccccc1)C(=O)CN(CCc1ccccc1)C(=O)CNCCN [Compound 12],86.5,0.211,224.4,4.04E+02,5.71E+02
CCCCCCCCCCN(CC(N)=O)C(=O)CN(CCCCCCCCCC)C(=O)CN(CCCCCCCCCC)C(=O)CN(CCCCCCCCCC)C(=O)CN(CCCCCCCCCC)C(=O)CN(CCc1ccccc1)C(=O)CN(CCc1ccccc1)C(=O)CN(CCN)C(=O)CN(CCc1ccccc1)C(=O)CN(CCc1ccccc1)C(=O)CN(CCN)C(=O)CN(CCc1ccccc1)C(=O)CN(CCc1ccccc1)C(=O)CNCCN [Compound 19],70.9,0.158,276,8.20E+03,1.09E+04
CCCCCCCCCCN(CC(N)=O)C(=O)CN(CCCCCCCCCC)C(=O)CN(CCCCCCCCCC)C(=O)CN(CCCCCCCCCC)C(=O)CN(CCCCCCCCCC)C(=O)CN(CCc1ccccc1)C(=O)CN(CCc1ccccc1)C(=O)CN(CCN)C(=O)CN(CCc1ccccc1)C(=O)CN(CCc1ccccc1)C(=O)CN(CCN)C(=O)CN(CCc1ccccc1)C(=O)CN(CCc1ccccc1)C(=O)CN(CCN)C(=O)CN(CCc1ccccc1)C(=O)CN(CCc1ccccc1)C(=O)CNCCN [Compound 21],65.4,0.174,386.5,3.45E+03,1.24E+04

# Further lines, with some results ahead:
% Encapsulation [1] [%],Size PDI [2],Size (nm) [2] [nm],SMILES,Luciferase Expression (RLU) 6 h (HeLa cells) [RLU],Luciferase Expression (RLU) 24 h (HeLa cells) [RLU]
87.0,0.135,161,CCCCCCCCCCN(CC(=O)N(CC(=O)N(CCCCCCCCCC)CC(=O)N(CC(N)=O)CC(CC)CCCC)CC(CC)CCCC)C(=O)CN(CCc1ccccc1)C(=O)CN(CCc1ccccc1)C(=O)CN(CCN)C(=O)CN(CCc1ccccc1)C(=O)CN(CCc1ccccc1)C(=O)CN(CCN)C(=O)CN(CCc1ccccc1)C(=O)CN(CCc1ccccc1)C(=O)CNCCN (stereo not shown) [Compound 24],1.79E+04,3.43E+04
24.8,0.237,343.4,CCCCCCCCCCN(CC(N)=O)C(=O)CN(CCCCCCCCCC)C(=O)CN(CCCCCCCCCC)C(=O)CN(CCCCCCCCCC)C(=O)CN(CCc1ccccc1)C(=O)CN(CCc1ccccc1)C(=O)CN(CCCN)C(=O)CN(CCc1ccccc1)C(=O)CN(CCc1ccccc1)C(=O)CN(CCCN)C(=O)CN(CCc1ccccc1)C(=O)CN(CCc1ccccc1)C(=O)CN(CCCN)C(=O)CN(CCc1ccccc1)C(=O)CN(CCc1ccccc1)C(=O)CNCCCN [Compound 29],1.64E+03,6.72E+03
58.0,0.295,348.4,CCCCCCCCCCN(CC(N)=O)C(=O)CN(CCCCCCCCCC)C(=O)CN(CCCCCCCCCC)C(=O)CN(CCCCCCCCCC)C(=O)CN(CCc1ccccc1)C(=O)CN(CCc1ccccc1)C(=O)CN(CC1CCCN1)C(=O)CN(CCc1ccccc1)C(=O)CN(CCc1ccccc1)C(=O)CN(CC1CCCN1)C(=O)CN(CCc1ccccc1)C(=O)CN(CCc1ccccc1)C(=O)CNCC1CCCN1 (stereo not shown) [Compound 34],1.95E+03,2.71E+03
38.0,0.486,359.8,CCCCCCCCCCN(CC(N)=O)C(=O)CN(CCCCCCCCCC)C(=O)CN(CCCCCCCCCC)C(=O)CN(CCCCCCCCCC)C(=O)CN(CCc1ccccc1)C(=O)CN(CCc1ccccc1)C(=O)CN(CC1CCCN1)C(=O)CN(CCc1ccccc1)C(=O)CN(CCc1ccccc1)C(=O)CN(CC1CCCN1)C(=O)CN(CCc1ccccc1)C(=O)CN(CCc1ccccc1)C(=O)CN(CC1CCCN1)C(=O)CN(CCc1ccccc1)C(=O)CN(CCc1ccccc1)C(=O)CNCC1CCCN1 (stereo not shown) [Compound 35],1.22E+03,1.60E+03
